These results are taken from patent US20150344485A1, “BICYCLIC PYRIMIDONE COMPOUNDS AS INHIBITORS OF LP-PLA2” (GLAXOSMITHKLINE INTELLECTUAL PROPERTY DEVELOPMENT LIMITED, priority 2013, published 2015).

Structures are written as SMILES. Bounds are passed on as bounds.

The first assay concerns the target T1, Lp-PLA2 in human plasma (Homo sapiens, UniProt Q13093).
T1 construct: from tissue; host or cells: pooled human plasma
T1 sequence (Q13093 22-441): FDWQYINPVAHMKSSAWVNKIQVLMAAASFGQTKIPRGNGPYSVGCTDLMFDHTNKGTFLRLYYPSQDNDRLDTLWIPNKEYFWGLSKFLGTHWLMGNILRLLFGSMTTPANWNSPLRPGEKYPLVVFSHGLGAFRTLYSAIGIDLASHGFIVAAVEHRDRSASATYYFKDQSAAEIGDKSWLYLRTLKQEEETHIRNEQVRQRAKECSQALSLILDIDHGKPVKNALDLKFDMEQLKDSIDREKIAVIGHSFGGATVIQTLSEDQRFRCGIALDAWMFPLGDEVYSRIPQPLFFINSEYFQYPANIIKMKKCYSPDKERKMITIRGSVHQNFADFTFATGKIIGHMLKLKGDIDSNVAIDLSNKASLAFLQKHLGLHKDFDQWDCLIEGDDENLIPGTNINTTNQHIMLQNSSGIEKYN
Description: Lp-PLA2 human plasma assay (Thio-PAF assay). It is filed as biochemical. The conditions noted are these: pooled human plasma; read-out: pIC50 values in the thio-PAF assay (converted). The source says: The human plasma assay utilizes a thioester analog of PAF (phosphatidylcholine), where hydrolysis yields to the formation of a phospholipid containing a free thiol group. The amount of thiol is quantitated continuously by reacting with CPM (7-diethylamino-3-(4′-maleimidylphenyl)-4-methylcoumarin), a maleimide which increases in fluoresence after Michael addition of thiols. This assay may detect the activity of Lp-PLA2 in human plasma, as determined by specific inhibition by Lp-PLA2 inhibitors.
The thio-PAF assay was run as a quenched 15 μL assay. Compounds source plate was prepared by making 1:3 (by volume) serial dilution of the compounds into pure DMSO on 384-well microplate. 0.01 μL of compounds on compound source plate were transferred to 384 well Greiner 784076 (black) low-volume plates by ECHO liquid dispenser. 8 μL pooled human plasma, which was previously aliquoted and frozen, was added. Plates were centrifuged for 10 sec at 500 rpm. After 30 minutes preincubation, 2 μL of substrate solution comprising 2.5 mM 2-thio-PAF [from ethanol stock], 32 μM CPM [from a DMSO stock] and 3.2 mM NEM (N-ethylmaleimide) [made fresh daily in DMSO] in assay buffer of 50 mM HEPES, pH 7.4, 150 mM NaCl, 1 mM CHAPS was added to 384 well Greiner 784076 (black) low-volume plates by BRAVO liquid handling station. After 2 mins, reaction was quenched with 5 μL of 5% aqueous trifluoroacetic acid (TFA). Plates were covered to protect from light and incubated for 40 min at room temperature. Plates were read at ex: 380/em: 485 using-Envision microplate reader. pIC50 data, curve and QC analysis was conducted by using XLFit module in Excel.
As to `CC1CCn2c(cc(OCc3ccc(F)cc3)nc2=O)N1C` (stereo not shown) [E9, 8-((4-fluorobenzyl)oxy)-1,2-dimethyl-3,4-dihydro-1H-pyrimido[1,6-a]pyrimidin-6(2H)-one], the IC50 is at most 0.1 µM.

As to `C[C@H]1CCn2c(cc(OCc3cc(F)c(F)cc3F)nc2=O)N1C` [E42, (S)-1,2-dimethyl-8-((2,4,5-trifluorobenzyl)oxy)-3,4-dihydro-1H-pyrimido[1,6-a]pyrimidin-6(2H)-one], the IC50 is at most 0.1 µM.

As for `C[C@@H]1CCn2c(cc(OCc3cccc(C#N)c3)nc2=O)N1C` [E127, (R)-3-(((1,2-dimethyl-6-oxo-2,3,4,6-tetrahydro-1H-pyrimido[1,6-a]pyrimidin-8-yl)oxy)methyl)benzonitrile], the IC50 is at most 0.1 µM.

Consider `CCN1c2cc(OCc3cccc(F)c3F)nc(=O)n2CC[C@@H]1C` [E53, (S)-8-((2,3-difluorobenzyl)oxy)-1-ethyl-2-methyl-3,4-dihydro-1H-pyrimido[1,6-a]pyrimidin-6(2H)-one], for which the IC50 is at most 0.1 µM.

As to `C[C@@H]1CCn2c(cc(OCc3ccc(F)cc3)nc2=O)N1C` [E20, (R)-8-((4-fluorobenzyl)oxy)-1,2-dimethyl-3,4-dihydro-1H-pyrimido[1,6-a]pyrimidin-6(2H)-one], the IC50 was at most 0.1 µM.

Consider `CN1c2cc(OCc3cccc(F)c3)nc(=O)n2CCC1(C)C` [E134, 8-((3-fluorobenzyl)oxy)-1,2,2-trimethyl-3,4-dihydro-1H-pyrimido[1,6-a]pyrimidin-6(2H)-one], for which the IC50 was at most 0.1 µM.

`C[C@@H]1CCn2c(cc(OCc3cc(F)c(F)c(F)c3)nc2=O)N1C` [E16, (R)-1,2-dimethyl-8-((3,4,5-trifluorobenzyl)oxy)-3,4-dihydro-1H-pyrimido[1,6-a]pyrimidin-6(2H)-one]: the IC50 was at most 0.1 µM.

Consider `[2H]C([2H])(Oc1cc2n(c(=O)n1)CCC(C)(C)N2C)c1cc(F)c(F)c(F)c1` [E55, 8-(dideutero(3,4,5-trifluorophenyl)methoxy)-1,2,2-trimethyl-3,4-dihydro-1H-pyrimido[1,6-a]pyrimidin-6(2H)-one], for which the IC50 was at most 0.1 µM.

For the molecule `C[C@@H]1CCn2c(cc(OCc3cc(F)c(Oc4cccc(Cl)c4)c(F)c3)nc2=O)N1C` [E64, (R)-8-((4-(3-chlorophenoxy)-3,5-difluorobenzyl)oxy)-1,2-dimethyl-3,4-dihydro-1H-pyrimido[1,6-a]pyrimidin-6(2H)-one], the IC50 is at most 0.01 µM.

As for `C[C@@H]1CCn2c(cc(OCc3cc(F)c(Oc4ccc(Cl)c(F)c4)c(F)c3)nc2=O)N1C` [E63, (R)-8-((4-(4-chloro-3-fluorophenoxy)-3,5-difluorobenzyl)oxy)-1,2-dimethyl-3,4-dihydro-1H-pyrimido[1,6-a]pyrimidin-6(2H)-one], the IC50 was at most 0.01 µM.

Take `CN1c2cc(OCc3cc(F)cc(F)c3)nc(=O)n2CCC1(C)C` [E74, 8-((3,5-difluorobenzyl)oxy)-1,2,2-trimethyl-3,4-dihydro-1H-pyrimido[1,6-a]pyrimidin-6(2H)-one]: the IC50 is at most 0.1 µM.

Consider `C[C@@H]1CCn2c(cc(OCc3cccc(F)c3)nc2=O)N1C` [E130, (R)-8-((3-fluorobenzyl)oxy)-1,2-dimethyl-3,4-dihydro-1H-pyrimido[1,6-a]pyrimidin-6(2H)-one], for which the IC50 was at most 0.1 µM.

Turning to `CN1c2cc(OCc3cccc(F)c3F)nc(=O)n2CCC1(C)C` [E72, 8-((2,3-difluorobenzyl)oxy)-1,2,2-trimethyl-3,4-dihydro-1H-pyrimido[1,6-a]pyrimidin-6(2H)-one], the IC50 is at most 0.1 µM.

Consider `C[C@H]1CCn2c(cc(OCc3cc(F)c(Oc4cccc(Cl)c4)c(F)c3)nc2=O)N1C` [E59, (S)-8-((4-(3-chlorophenoxy)-3,5-difluorobenzyl)oxy)-1,2-dimethyl-3,4-dihydro-1H-pyrimido[1,6-a]pyrimidin-6(2H)-one], for which the IC50 was at most 0.1 µM.

`CC1CCn2c(cc(OCc3cccc(F)c3)nc2=O)N1C` (stereo not shown) [E12, 8-((3-fluorobenzyl)oxy)-1,2-dimethyl-3,4-dihydro-1H-pyrimido[1,6-a]pyrimidin-6(2H)-one]: the IC50 was at most 0.1 µM.

Regarding `[2H]C([2H])(Oc1cc2n(c(=O)n1)CC[C@@H](C)N2C)c1cc(F)cc(F)c1` [E50, (R)-8-((3,5-difluorophenyl)dideuteromethoxy)-1,2-dimethyl-3,4-dihydro-1H-pyrimido[1,6-a]pyrimidin-6(2H)-one], the IC50 is at most 0.1 µM.

A further assay deals with T2, recombinant human Lp-PLA2 (Homo sapiens, UniProt Q13093).
T2 sequence (Q13093 22-441): T1 sequence (Q13093 22-441)
Briefly: Recombinant human Lp-PLA2 assay (rhLp-PLA2, PED6 assay). It is filed as biochemical. The conditions noted are these: read-out: pIC50 values in the recombinant human Lp-PLA2 assay (converted). The source says: (1) Recombinant Human Lp-PLA2 Assay (rhLp-PLA2) (Also Referred to as “PED6” Assay)
N-((6-(2,4-dinitrophenyl)amino)-hexanoyl)-2-(4,4-difluoro-5,7-dimethyl-4-bora-3a,4a-diaza-s-indacene-3-pentanoyl)-1-hexadecanoyl-sn-glycero-3-phosphoethanolamine, triethylammonium salt (PED6) is a commercially available fluorescently-labeled phospholipid, which is commercially available from Invitrogene and Molecular Probes. There is a quenching para-nitro phenyl (PNP) group in the sn3 position and a Bodipy fluorescein (FL) group in the sn2 position. Upon cleavage with Lp-PLA2, the Bodipy FL group is liberated and then may result in an increase in fluorescence. Inhibitors of Lp-PLA2 therefore prevent this cleavage and no fluorescent increase is observed.
The PED6 assay was run as an unquenched 10 μL assay. The source plate containing the compounds to be tested was prepared by making 1:3 (by volume) serial dilution of the compounds within DMSO on 384-well microplate. Then, 0.01 μL of the compounds on compound source plate were transferred into 384 well Greiner 784076 (black) plates using ECHO liquid dispenser. 5 μL of recombinant human Lp-PLA2 enzyme (4 nM (or 110 pM) rhLp-PLA2 in assay buffer of 50 mM HEPES, pH 7.4, 150 mM NaCl, 1 mM CHAPS) was added to each well of the plate. Plates were centrifuged for 10 sec at 500 rpm. After 30 minutes preincubation, 5 μL of substrate (4 μM (or 5 μM) PED6 [from 5 mM DMSO stock] in assay buffer of 50 mM HEPES, pH 7.4, 150 mM NaCl, 1 mM CHAPS) was added to 384 well Greiner 784076 (black) plates. Plates were centrifuged for 10 sec at 500 rpm. The plate was covered to protect it from light and incubated for 20 min at room temperature. The plates were read for fluorescence intensity at ex: 480/em: 540 using ViewLux microplate imager for Envision spectrofluroimeters. pIC50 data, curve and QC analysis was conducted by using XL fit module in Excel.
`CC(C)Oc1c(F)cc(COc2cc3n(c(=O)n2)CC[C@H](C)N3C)cc1F` [E100, (S)-8-((3,5-difluoro-4-isopropoxybenzyl)oxy)-1,2-dimethyl-3,4-dihydro-1H-pyrimido[1,6-a]pyrimidin-6(2H)-one]: the IC50 is at most 0.001 µM.

On to `C[C@@H]1CCn2c(cc(OCc3cc(F)c(OC4CCCCC4)c(F)c3)nc2=O)N1C` [E83, (R)-8-((4-(cyclohexyloxy)-3,5-difluorobenzyl)oxy)-1,2-dimethyl-3,4-dihydro-1H-pyrimido[1,6-a]pyrimidin-6(2H)-one], for which the IC50 was at most 0.001 µM.

Consider `C[C@H]1CCn2c(cc(OCc3cc(F)c(OC4CCCCC4)c(F)c3)nc2=O)N1C` [E81, (S)-8-((4-(cyclohexyloxy)-3,5-difluorobenzyl)oxy)-1,2-dimethyl-3,4-dihydro-1H-pyrimido[1,6-a]pyrimidin-6(2H)-one], for which the IC50 was at most 0.001 µM.

As for `C[C@H]1CCn2c(cc(OCc3ccc(Oc4cc(F)cc(F)c4)cc3)nc2=O)N1C` [E141, (S)-8-((4-(3,5-difluorophenoxy)benzyl)oxy)-1,2-dimethyl-3,4-dihydro-1H-pyrimido[1,6-a]pyrimidin-6(2H)-one], the IC50 was at most 0.001 µM.

Regarding `CC(C)N1c2cc(OCc3ccc(F)c(F)c3)nc(=O)n2CC[C@H]1C` [E69, (R)-8-((3,4-difluorobenzyl)oxy)-1-isopropyl-2-methyl-3,4-dihydro-1H-pyrimido[1,6-a]pyrimidin-6(2H)-one], the IC50 was at most 0.001 µM.

For `CC1CCn2c(cc(OCc3cc(F)c(Oc4cccc(F)c4)c(F)c3)nc2=O)N1` (stereo not shown) [E5, 8-((3,5-difluoro-4-(3-fluorophenoxy)benzyl)oxy)-2-methyl-3,4-dihydro-1H-pyrimido[1,6-a]pyrimidin-6(2H)-one], the IC50 is at most 0.001 µM.

The assay is the same for the next values; noted with them: read-out: rhLp-PLA2 (PED6 assay) (pIC50) (converted).
Regarding `C[C@@H]1CCn2c(cc(OCc3ccc(OC4CCCC4)c(F)c3)nc2=O)N1C` [E48, (R)-8-((4-(cyclopentyloxy)-3-fluorobenzyl)oxy)-1,2-dimethyl-3,4-dihydro-1H-pyrimido[1,6-a]pyrimidin-6(2H)-one], the IC50 was 0.00794 µM.

On to `C[C@@H]1CCn2c(cc(OCc3ccc(OC4CCCCC4)c(F)c3)nc2=O)N1C` [E67, (R)-8-((4-(cyclohexyloxy)-3-fluorobenzyl)oxy)-1,2-dimethyl-3,4-dihydro-1H-pyrimido[1,6-a]pyrimidin-6(2H)-one], for which the IC50 is 0.00501 µM.

Regarding `CC1CCn2c(cc(OCc3cc(F)c(Oc4cccc(F)c4)c(F)c3)nc2=O)N1` (stereo not shown) [E5, 8-((3,5-difluoro-4-(3-fluorophenoxy)benzyl)oxy)-2-methyl-3,4-dihydro-1H-pyrimido[1,6-a]pyrimidin-6(2H)-one], the IC50 was 0.000398 µM.
